From article PMC3224971, “An exo-cell assay for examining real-time γ-secretase activity and inhibition” (Molecular Neurodegeneration, 2009)

Tests used:
[1] = system: A20 mouse lymphoma cells; assay: lymphoma proliferation assay ([3H]thymidine incorporation); assay type: cell-based; settings: for inhibition of cellular proliferation (in words): 48 hours of treatment
Description: A20 mouse lymphoma cells were seeded in a 96-well plate at a concentration of 5 × 10^5 cells/ml in 100 μl RPMI media containing 2% fetal bovine serum. An additional 100 μl of media containing DMSO or γ-secretase inhibitor was added and incubated for 48 hours at 37°C. After this incubation, the cells were incubated for 5 hours with 2 μCi/ml [^3H]thymidine at 37°C. Proliferative response was then evaluated by harvesting the tritiated DNA from cells using a Skatron cell harvester and proliferation assessed as a function of [^3H]thymidine incorporation measured on a β-counter.

[2] = biological target: T1, γ-secretase (Mus musculus, UniProt P49769); assay: cell-based γ-secretase assay in N2A cells stably overexpressing APP; settings: 24 hours with GSI, Aβ 40-site cleavage, ECL detection
Description: The cell-based assay utilized N2A mouse neuroblastoma cells that stably overexpress the amyloid precursor protein. These were incubated with γ-secretase inhibitors in a final concentration of 1% DMSO for 24 hours. Following incubation, the supernatant was removed from the cells and assayed for Aβ 40-site cleaved APP product using ruthenylated G2-10* antibody as well as biotinylated 4G8 antibody.

[3] = biological target: T2, γ-secretase (Homo sapiens, UniProt P49768); assay: exo-cell γ-secretase assay in HeLa cells; assay type: cell-based; settings: HeLa cells incubated simultaneously with GSI, 1 μM Sb4 and 0.25% CHAPSO, 2.5 hours; ECL detection
Description: (§1) Cells were seeded at their indicated concentration in 96-well plates and allowed to attach overnight (Fig. 1c). The next day, media was removed and cells were washed once with PBS. Fresh media was then added containing 0.25% CHAPSO detergent, Sb4 substrate to a final concentration of 1 μM, and 1% DMSO or γ-secretase inhibitor. This was incubated for 2.5 hours at 37°C. Media was removed and cell debris was pelleted from this media for 5 min. at 3,500 rpm's. Supernatant was then added to ruthenylated G2-10* antibody that recognizes cleaved product, but not uncleaved substrate. This was incubated for an additional 2 hours at room temperature. Finally, magnetic streptavidin beads were added to a final concentration of 80 μg/ml and incubated for 30 min. at room temperature. Assay buffer was added to the samples and γ-secretase-mediated cleavage of substrate was monitored using electrochemiluminescence (ECL). Protocol for HTRF detection can be found below.
Homogeneous time-resolved fluorescence (HTRF) was also incorporated for the exo-cell assay detection of cleaved substrate. […] Exo-cell supernatent and HTRF detection mix were incubated together for 5 hours in a 384-well plate and then activity was measured by stimulating at 337 nm and reading at 665 nm.

[4] = biological target: T2, γ-secretase; assay: extended exo-cell γ-secretase assay in HeLa cells; assay type: cell-based
Description: as §1
Conversely, an extended exo-cell assay was performed whereby cells were seeded and allowed to attach overnight as previously described. However, the next day media was removed and replaced with fresh media containing 1% DMSO or γ-secretase inhibitor. These were incubated for 24 hours at 37°C. Following this incubation, the cells were washed once with PBS and fresh media containing detergent and substrate were added. […]

[5] = biological target: T2, γ-secretase; assay: in vitro γ-secretase assay with Sb4 substrate and solubilized γ-secretase; assay type: biochemical; settings: Sb4 substrate, 0.25% CHAPSO, solubilized γ-secretase, 2.5 hours at 37°C, ECL detection
Description: The in vitro and cell-based γ-secretase assays were performed similarly as previously described. Briefly, the recombinant Sb4 substrate was incubated for 2.5 hours at 37°C in pH 7.0 PIPES buffer in the presence of 0.25% CHAPSO detergent and solubilized γ-secretase at a final concentration of 40 ng/ul. The detection of cleaved substrate was determined using ruthenylated G2-10* antibody. Due to biotinylation of the Sb4 substrate, this eliminated the additional use of 6E10 biotinylated antibody from the original protocol.

[6] = biological target: T1, γ-secretase; assay: real-time exo-cell γ-secretase assay in A20 mouse lymphoma cells; assay type: cell-based; settings: 300 nM, 48 hours treatment
Description: Figure 4 Examination of real-time γ-secretase activity in A20 lymphoma and in primary B-CLL patient samples. (a) Correlation between real-time inhibition of γ-secretase activity and GSI-mediated inhibition of A20 mouse lymphoma proliferation. Two 96-well plates were seeded with 50,000 A20 mouse lymphoma cells per well in 100 μl RPMI media. To each of these plates an additional 100 μl of media was added containing DMSO or GSI-34 to indicated final concentration. These plates were incubated for 48 hours at 37°C. Following this incubation, one plate was used in a real-time exo-cell assay to quantitate the real-time inhibition of γ-secretase in A20 cells. Briefly, A20 cells were pelleted and media removed. Fresh media containing 1 μM Sb4 substrate and 0.25% CHAPSO detergent were added and the exo-cell assay was performed. For each assay point n = 4, and s.d. is plotted. Additionally, to the other 96-well plate 2 μCi/ml [^3H]thymidine was incubated with the cells for 5 hours. Following 5-hour incubation at 37°C, the amount of tritiated DNA was quantified on a β-counter. For each proliferation assay point n = 10, and s.d. is plotted. (b) Real-time γ-secretase activity in primary B-CLL patient samples. […] Assay buffer was added to the samples and γ-secretase-mediated cleavage of substrate was monitored using electrochemiluminescence (ECL). […]

## CC(C)C[C@H](NC(=O)[C@H](Cc1ccccc1)C[C@@H](O)[C@H](Cc1ccccc1)NC(=O)OC(C)(C)C)C(=O)N[C@@H](Cc1ccccc1)C(N)=O [L-685,458]
[1]
  inhibition of cellular proliferation (in words): able to inhibit cellular proliferation

## CC(NC(=O)Cc1cc(F)cc(F)c1)C(=O)NC1N=C(c2ccccc2)c2ccccc2N(C)C1=O (stereo not shown) [Compound E]
[2]
  IC50: 4.6 nM
[3]
  IC50: 3.8 nM
[4]; HeLa cells incubated with GSI for 24 hours, washed, then Sb4 and CHAPSO, ECL detection
  IC50: 2.8 nM
[1]
  inhibition of cellular proliferation (in words): able to inhibit cellular proliferation

## O=C(COc1ccc(F)cc1)Nc1ccc2c(c1)CC1CCC(C2)C1NS(=O)(=O)c1ccc(Cl)s1 (stereo not shown) [GSI-34]
[5]
  IC50: 1 nM
[4]; HeLa cells treated 24 hours with varying concentrations
  inhibition of γ-secretase activity (in words): Dose-dependent inhibition
[6]
  inhibition at 0.3 µM: ~80%
[1]; 300 nM, 48 hours treatment
  reduction of cellular proliferation: 30%
[1]
  inhibition of cellular proliferation (in words): able to inhibit cellular proliferation
